Literature values in patent US9029427B2, “Controlled release solid preparation” (Asahi Kasei Chemicals Corporation, priority 2005, dated 2015).

Conditions: water

Row | SMILES | amount of solvent required for dissolving 1 g of solute
1 | O=C([O-])c1ccccc1O.[Na+] [sodium salicylate] | less than 1 cm^3
2 | CCOc1ccccc1C(N)=O [Ethenzamide] | ≥ 10000 cm^3
